Earlier results as cited in patent US20040127476A1, “Oral testosterone delivery system with improved sustained release” (priority 2002, published 2004).

Columns and labels:
[1] = oral 200 mg twice daily (two doses)
[2] = oral 200 mg twice daily, double peak effect

C[C@]12CC[C@H]3[C@@H](CCC4=CC(=O)CC[C@@]43C)[C@@H]1CC[C@@H]2O [micronized testosterone, testosterone]
time with total serum testosterone within the normal range [1]: greater than 12 h | time at desired level of serum testosterone, for each peak [2]: about 4 hours
